Results reported in patent publication US20250144067A1, “PERSONALIZED STARVATION THERAPY FOR CANCER” (Faeth Therapeutics, Inc., priority 2021, published 2025).
Structures can show the parent of a compound that is named as a salt.

Legend:
[1] = tested on: NCI-H292 lung cancer cells; assay: FDA drug screening, complete media vs cholesterol-free media without statin (TABLE 1); format: cell-based, human
[2] = tested on: NCI-H292 lung cancer cells; assay: FDA drug screening, complete media vs cholesterol-free media with simvastatin (TABLE 2); format: cell-based, human
[3] = NCI-H292 cells, cholesterol-free media without statin, FDA drug library screen
[4] = NCI-H292 cells, complete media, FDA drug library screen
[5] = complete vs cholesterol-free media, >0 enhanced anti-cancer activity, about 0 neutral, <0 antagonist
[6] = NCI-H292 cells, drug in cholesterol-free media with simvastatin 0.04 μM
[7] = NCI-H292 cells, drug in complete media
[8] = complete media vs cholesterol-free media + simvastatin (0.04 μM), >0 enhanced anti-cancer activity, about 0 neutral, <0 antagonist
[9] = Complete minus Cholesterol-free, greater than 0 enhanced anti-cancer activity, about 0 neutral, below 0 antagonist
[10] = NCI-H292 cells, FDA drug library screen, cholesterol-free media without statin
[11] = NCI-H292 cells, FDA drug library screen, complete media
[12] = NCI-H292 cells, cholesterol-free media with simvastatin 0.04 μM, cell growth value in FDA drug screen
[13] = NCI-H292 cells, complete media, cell growth value in FDA drug screen
[14] = complete media minus cholesterol-free media + simvastatin, >0 enhanced anti-cancer activity, about 0 neutral, <0 antagonist
[15] = complete media minus cholesterol-free media + simvastatin (0.04 μM), >0 enhanced anti-cancer activity, about 0 neutral, <0 antagonist
[16] = Complete minus Cholesterol-free, >0 enhanced anti-cancer activity, about 0 neutral, <0 antagonist
[17] = NCI-H292 cells, cholesterol-free media without statin
[18] = NCI-H292 cells, FDA drug library screen, cholesterol-free media with simvastatin 0.04 μM
[19] = complete vs cholesterol-free media, greater than 0 enhanced anti-cancer activity, about 0 neutral, below 0 antagonists

Row | Compound | Cholesterol-free media + simvastatin (0.04 μM) [2, 6] | Complete Media [2, 7] | Difference [2, 8] | Difference [1, 9] | Cholesterol-free [1, 10] | Complete [1, 11] | Difference [2, 14] | Cholesterol-free [1, 17] | Complete ([1]; NCI-H292 cells, complete media) | further results
1 | C[C@@H](c1ncncc1F)[C@](O)(Cn1cncn1)c1ccc(F)cc1F [Voriconazole] | 1.08 | 0.8559 | −0.22 |  |  |  |  |  |  | Cholesterol-free [1, 3]: 0.6824; Complete [1, 4]: 0.9897; Difference [1, 5]: 0.31
2 | CN(C)CCN(Cc1ccc(Cl)cc1)c1ccccn1 [Chloropyramine hydrochloride] |  |  |  | −0.17 | 1.558 | 1.385 | 0.06 |  |  | Cholesterol-free media + simvastatin (0.04 μM) [2, 12]: 0.999; Complete Media [2, 13]: 1.055
3 | Orphenadrine (citrate) |  |  |  | −0.10 | 0.8697 | 0.768 | 0.38 |  |  | Complete Media [2, 11]: 1.525
4 | CNCCc1ccccn1 [Betahistine] | 1.266 | 1.062 | −0.20 | −0.10 | 1.192 | 1.087 |  |  |  | 
5 | CC(C)N(CC[C@H](c1ccccc1)c1cc(CO)ccc1O)C(C)C [Desfesoterodine] | 1.01 | 0.8395 |  |  |  |  |  |  |  | Cholesterol-free [1, 3]: 0.7501; Complete [1, 4]: 1.3; Difference ([1]; complete vs cholesterol-free media, […]): 0.55; Difference ([2]; complete media vs cholesterol-free media + simvastatin (0.04 μM), […]): −0.17
6 | CCN1CCCC(OC(=O)C(c2ccccc2)c2ccccc2)C1 (stereo not shown) [Piperidolate (hydrochloride)] |  |  |  |  |  |  |  |  |  | Cholesterol-free ([1]; (hydrochloride)): 0.554; Complete ([1]; (hydrochloride)): 1.098; Difference ([1]; (hydrochloride)): 0.54; Cholesterol-free media + simvastatin (0.04 μM) ([2]; (hydrochloride)): 0.5751; Complete Media ([2]; (hydrochloride)): 0.901; Difference ([2]; (hydrochloride)): 0.33
7 | CCN(C(=O)c1c(O)c2c(Cl)cccc2n(C)c1=O)c1ccccc1 [Laquinimod] |  |  |  | −0.15 | 1.127 | 0.9797 |  |  |  | Cholesterol-free media + simvastatin (0.04 μM) ([2]; NCI-H292 cells, cholesterol-free media with simvastatin 0.04 μM, FDA drug library screen (TABLE 2)): 1.3; Complete Media ([2]; NCI-H292 cells, complete media, FDA drug library screen (TABLE 2)): 1.306; Difference [2, 15]: 0.01
8 | CC(C)COCC(CN(Cc1ccccc1)c1ccccc1)N1CCCC1 (stereo not shown) [Bepridil hydrochloride] |  |  |  |  |  |  | 0.27 | 1.009 | 0.8157 | Difference [1, 16]: −0.19; Cholesterol-free media + simvastatin (0.04 μM) [2, 18]: 1.312; Complete Media [2, 11]: 1.584
9 | c1cnc2cc3c(cc2n1)[C@@H]1CNC[C@H]3C1 [Varenicline (Hydrochloride)] | 1.193 | 0.9876 | −0.21 |  |  |  |  | 1.095 | 0.8911 | Difference [1, 16]: −0.20
10 | O=C1CN(/N=C/c2ccc([N+](=O)[O-])o2)C(=O)N1 [Nitrofurantoin] |  |  | −0.08 | −0.16 | 1.115 | 0.9573 |  |  |  | Cholesterol-free media + simvastatin (0.04 μM) [2, 18]: 0.848; Complete Media [2, 11]: 0.7708
11 | Nc1ccc(S(=O)(=O)Nc2ncccn2)cc1 [Sulfadiazine] |  |  |  |  |  |  | 0.06 | 1.21 | 0.7631 | Difference [1, 19]: −0.45; Cholesterol-free media + simvastatin (0.04 μM) [2, 12]: 1.499; Complete Media [2, 13]: 1.555
12 | CCOC(=O)N1CCC(=C2c3ccc(Cl)cc3CCc3cccnc32)CC1 [Loratadine] |  |  |  |  |  |  | 0.10 | 1.122 | 0.8264 | Difference [1, 16]: −0.30; Cholesterol-free media + simvastatin (0.04 μM) [2, 12]: 0.8147; Complete Media [2, 13]: 0.9097
13 | CC(=O)c1c(C)c2cnc(Nc3ccc(N4CCNCC4)cn3)nc2n(C2CCCC2)c1=O [Palbociclib (hydrochloride)] | 1.037 | 0.8185 | −0.22 |  |  |  |  | 1.289 | 1.028 | Difference [1, 16]: −0.26
14 | CN(C)CC/C=C1/c2ccccc2Sc2ccc(Cl)cc21 [Chlorprothixene] |  |  |  |  |  |  |  | 1.606 | 1.176 | Difference [1, 19]: −0.43; Cholesterol-free media + simvastatin (0.04 μM) [2, 18]: 2.022; Difference [2, 15]: −0.96
15 | CC#CC(=O)N1CCC[C@H]1c1nc(-c2ccc(C(=O)Nc3ccccn3)cc2)c2c(N)nccn12 [Acalabrutinib] |  |  |  |  |  |  | 0.32 |  |  | Cholesterol-free [1, 3]: 0.7449; Complete [1, 4]: 0.989; Difference [1, 5]: 0.24; Cholesterol-free media + simvastatin (0.04 μM) [2, 18]: 1.302; Complete Media [2, 11]: 1.618
